Patent US4350700A, “Pharmaceutical composition containing 1,3,5-substituted biuret compound” (Taiho Pharmaceutical Company, Limited, priority 1979, dated 1982)
Where two headings read alike, the source gives them in different places.

How the values were obtained:
ddy strain of male mice = assay: Acute toxicity (oral, general symptom and death observed for 7 days); assay type: in vivo; conditions: 7 days
Procedure: (§1) Next, several tests for determining the pharmacological properties, in that acute toxicity, anti-pyretic activity, analgesic activity and anti-inflammatory activity of the present 1,3,5-substituted biuret compounds of the formula (1) were conducted and the test results are shown in Table (2). In the tests, each compounds to be tested was used as a suspension in 0.25% carboxymethylcellulose solution. Methods for testing are explained as follows:
The ddy strain of male mice (body weight, 20-25 g) were used as test animals. The mice were fasted overnight and the compound to be tested was administered orally. […] The lethal dose (mg/kg, body weight) of the test compound was determined in connection with the death number of mice/the number of mice tested. In Table 2, the values indicated with Δ marks are 50% lethal dose, LD50 (mg/kg, body weight).

[1] = test system: acetic acid-induced stretching symptom of mouse; assay: Analgesic activity, acetic acid-induced stretching method; assay type: in vivo, mice (ddy strain, male); conditions: for inhibition in vivo at 100 mg/kg / inhibition in vivo at 200 mg/kg: read-out: Analgesic activity, acetic acid-induced stretching method, inhibitory ratio
Procedure: as §1
(1) Acetic acid-induced stretching method
According to the method reported by Koster et.al., [Fed. Proc., Vol. 18, pp. 412 (1959)], the ddy strain of male mice (body weight, 20-25 g) were used as test animals. The mice were fasted overnight, 100 mg/kg body weight of the test compound was administered orally, then 1 hour after the administration, 0.2 ml of 0.7% acetic acid solution was injected intraperitoneally. The acetic acid-induced stretching symptom of mouse was observed. Analgesic activity of the test compound was calculated as the inhibitory ratio (%). In Table 2, the values in parentheses show the data obtained from the test by using the dosage other than 100 mg/kg body weight. Further, the values indicated with Δ marks show 50% effective dose, ED50 (mg/kg body weight).

[2] = test system: pain reaction of the mouse caused by a clamp; assay: Analgesic activity, Haffner method; assay type: in vivo, mice (ddy strain, male); conditions: for Analgesic activity, Haffner method, inhibitory ratio: mice
Procedure: as §1
According to the modified method reported by Fujimura et al., [Bulletin of the Institute for Chemical Research, Kyoto University, No. 25, pp. 36 (1951)], the ddy strain of male mice (body weight, 20-25 g) were used as test animals. The mice were fasted overnight, 100 mg/kg body weight of the test compound was administered orally, then 45 minutes after the administration, the threshhold amount (1.5-2.5 mg/kg body weight) of morphine hydrochloride was injected subcutaneously. Then 1-hour pain reaction of the mouse caused by a clamp was observed. Analgesic activity of the test compound was calculated as the inhibitory ratio (%). In Table 2, the values in parentheses show the data obtained from the test by using the dosage other than 100 mg/kg body weight. Further, the values indicated with Δ marks show 50% effective dose, ED50 (mg/kg body weight).

[3] = test system: carrageenin-induced inflammation of the hindpaw of the rat; assay: Anti-inflammatory activity, acute carrageenin-induced inflammatory test; assay type: in vivo, rats (Wistar strain, male); conditions: Rattus norvegicus, read-out: Anti-inflammatory activity, inflammation inhibitory ratio; for inhibition in vivo at 200 mg/kg: 200 mg/kg oral
Procedure: as §1
4. Anti-inflammatory Activity
According to the method of acute carrageenin-induced inflammatory test [Folia Pharmacologia Japonica, Vol. 56, pp. 575 (1960)], the Wistar strain of male rats (body weight, 150-180 g) were used as test animals. The rats were fasted overnight, 100 mg/kg body weight of the test compound was administered orally, then 1 hour after the administration, 0.1 ml of 1% carrageenin solution, as the inflammation inducing agent, was injected subcutaneously to the hindpaw of the rat and the volume of the hindpaw was measured at time sequences. Anti-inflammatory activity of the test compound was calculated as inflammation inhibitory ratio (%) at 3 hours after the injection of inflammation inducing agent.

[4] = 100 mg/kg oral, rats, 3 hours after carrageenin
[5] = rats, 3 hours after carrageenin

SMILES | Acute toxicity, death number of mice/number of mice tested (ddy strain of male mice; 2000 mg/kg oral) | inhibition in vivo at 100 mg/kg ([1]; po) [%] | Analgesic activity, Haffner method, inhibitory ratio ([2]; 100 mg/kg oral) [%] | Acute toxicity, death number of mice/number of mice tested (ddy strain of male mice; 1000 mg/kg oral) | further results
CN(C(=O)NCCO)C(=O)Nc1ccccc1 [compound 56, 1-(2-Hydroxyethyl)-3-methyl-5-phenylbiuret] | 0/4 | 62.5 | 37.5 | – | inhibition in vivo at 100 mg/kg [3, 4]: 42%
CCNC(=O)NC(=O)NCc1ccccc1 [compound 29, 1-Ethyl-5-benzylbiuret] | 1/4 | 12.5 | 25 | 0/4 | inhibition in vivo at 100 mg/kg [3, 4]: 31%
CCNC(=O)N(C)C(=O)Nc1ccc(O)cc1 [compound 34, 1-Ethyl-3-methyl-5-(4-hydroxyphenyl)biuret] | 0/4 | – | 12.5 | – | inhibition in vivo at 100 mg/kg ([1]; 100 mg/kg oral, mice): 25%; inhibition in vivo at 100 mg/kg [3, 4]: 19%
CN(C(=O)Nc1ccccc1)C(=O)Nc1ccccc1 [compound 64] | 0/4 | 37.5 | – | – | Analgesic activity, Haffner method, inhibitory ratio ([2]; 200 mg/kg oral): 12.5%
CCNC(=O)NC(=O)Nc1ccc(Cl)cc1 [compound 26] | 0/4 | – | – | – | inhibition in vivo at 200 mg/kg ([1]; po): 12.5%; Analgesic activity, Haffner method, inhibitory ratio ([2]; 200 mg/kg oral): 25%; inhibition in vivo at 200 mg/kg [3, 5]: 76%
CCCNC(=O)NC(=O)NCc1ccccc1 [compound 42] | 0/4 | – | – | – | inhibition in vivo at 200 mg/kg ([1]; 200 mg/kg oral, mice): 82.5%; Analgesic activity, Haffner method, inhibitory ratio ([2]; 200 mg/kg oral): 50%; inhibition in vivo at 200 mg/kg [3, 5]: 31%
CCN(C(=O)NC)C(=O)Nc1ccccc1 [Compound No. 21, 1-Methyl-3-ethyl-5-phenylbiuret] | 3/4 | 50 | 37.5 | 1/4 | inhibition in vivo at 100 mg/kg [3, 4]: 56%
COCCNC(=O)N(C)C(=O)Nc1ccccc1 [compound 59, 1-(2-Methoxyethyl)-3-methyl-5-phenylbiuret] | 4/4 | – | 25 | 1/4 | inhibition in vivo at 100 mg/kg ([1]; 100 mg/kg oral, mice): 25%
CCNC(=O)NC(=O)Nc1ccccc1Cl [compound 24, 1-Ethyl-5-(2-chlorophenyl)biuret] | 0/4 | – | – | – | inhibition in vivo at 200 mg/kg ([1]; 200 mg/kg oral, mice): 25%; Analgesic activity, Haffner method, inhibitory ratio ([2]; 200 mg/kg oral): 37.5%; inhibition in vivo at 200 mg/kg [3, 5]: 77%
CNC(=O)NC(=O)Nc1ccccc1 [Compound No. 2] | – | 75 | 50 | 4/4 | Acute toxicity, death number of mice/number of mice tested (ddy strain of male mice; 500 mg/kg oral): 0/4; inhibition in vivo at 100 mg/kg ([3]; po, 3 h): 28%
CCCCNC(=O)NC(=O)Nc1ccccc1 [compound 46] | 0/4 | – | – | – | Analgesic activity, Haffner method, inhibitory ratio ([2]; 200 mg/kg oral): 25%; inhibition in vivo at 200 mg/kg [3, 5]: 84%
CN(C)CCNC(=O)N(C)C(=O)Nc1ccccc1 [compound 55, 1-(2-Dimethylaminoethyl)-3-methyl-5-phenylbiuret] | – | 12.5 | 12.5 | 3/4 | Acute toxicity, death number of mice/number of mice tested (ddy strain of male mice; 500 mg/kg oral): 2/4; inhibition in vivo at 100 mg/kg [3, 4]: 22%
CNC(=O)N(C)C(=O)Nc1ccccc1C(=O)O [compound 10, 1,3-Dimethyl-5-(2-carboxyphenyl)biuret] | 4/4 | 12.5 | – | 1/4 | –
CCNC(=O)NC(=O)Nc1cccc(Cl)c1 [compound 25, 1-Ethyl-5-(3-chlorophenyl)biuret] | 0/4 | – | – | – | inhibition in vivo at 200 mg/kg ([1]; 200 mg/kg oral, mice): 25%; Analgesic activity, Haffner method, inhibitory ratio ([2]; 200 mg/kg oral): 37.5%; inhibition in vivo at 200 mg/kg [3, 5]: 86%
CN(C(=O)NCC(=O)O)C(=O)Nc1ccccc1 [compound 60, 1-Carboxymethyl-3-methyl-5-phenylbiuret] | 0/4 | – | 25 | – | inhibition in vivo at 100 mg/kg ([1]; 100 mg/kg oral, mice): 25%
CN(C(=O)NCCCl)C(=O)Nc1ccccc1 [compound 53, 1-(2-Chloroethyl)-3-methyl-5-phenylbiuret] | 0/4 | 12.5 | 25 | – | inhibition in vivo at 100 mg/kg ([3]; po, 3 h): 40%
CC(=O)NC(=O)N(C)C(=O)Nc1ccccc1 [compound 61, 1-Acetyl-3-methyl-5-phenylbiuret] | 0/4 | 50 | 12.5 | – | –
CCCCNC(=O)NC(=O)NCc1ccccc1 [compound 48] | 0/4 | – | – | – | ED50 ([1]; oral, mice (Δ values; range in parentheses), read-out: Analgesic activity, acetic acid-induced stretching method, 50% effective dose ED50): 111 mg/kg; ED50 ([2]; Mus musculus, oral, mice (Δ values; range in parentheses), read-out: Analgesic activity, Haffner method, 50% effective dose ED50): 110 mg/kg; inhibition in vivo at 200 mg/kg [3, 5]: 46%
CN(C(=O)NCCC#N)C(=O)Nc1ccccc1 [compound 54, 1-(2-Cyanoethyl)-3-methyl-5-phenylbiuret] | 3/4 | 50 | 12.5 | 0/4 | inhibition in vivo at 100 mg/kg [3, 4]: 39%
CN(C(N)=O)C(=O)Nc1ccccc1 [Compound No. 1] | 2/4 | 37.5 | – | – | –
CN(C(=O)NO)C(=O)Nc1ccccc1 [compound 62, 1-Hydroxy-3-methyl-5-phenylbiuret] | 1/4 | – | 25 | 0/4 | –
CNC(=O)N(C)C(=O)NCc1ccccc1 [compound 12] | – | – | 50 | 4/4 | Acute toxicity, death number of mice/number of mice tested (ddy strain of male mice; 500 mg/kg oral): 0/4; inhibition in vivo at 100 mg/kg ([1]; 100 mg/kg oral, mice): 100%; inhibition in vivo at 100 mg/kg ([3]; po, 3 h): 47%
CN(C(=O)NCC(C)(C)O)C(=O)Nc1ccccc1 [Compound No. 57, 1-(2-Methyl-2-hydroxypropyl)-3-methyl-5-phenylbiuret] | 2/4 | – | 50 | 0/4 | inhibition in vivo at 100 mg/kg ([1]; 100 mg/kg oral, mice): 100%
CN(C(=O)NCC(O)CO)C(=O)Nc1ccccc1 (centres unmarked) [compound 58, 1-(2,3-Dihydroxypropyl)-3-methyl-5-phenylbiuret] | 0/4 | 37.5 | 37.5 | – | –
CCNC(=O)NC(=O)Nc1ccccn1 [compound 30, 1-Ethyl-5-(2-pyridyl)biuret] | 3/4 | – | 37.5 | 0/4 | inhibition in vivo at 100 mg/kg ([3]; po, 3 h): 30%
CNC(=O)N(C)C(=O)NCc1ccccn1 [compound 13, 1,3-Dimethyl-5-(2-pyridylmethyl)biuret] | 2/4 | – | 37.5 | 0/4 | inhibition in vivo at 100 mg/kg ([1]; 100 mg/kg oral, mice): 25%
